Earlier results as cited in patent US20220218877A1, “C[…] COMPOSITIONS” ([…], priority 2019, published 2022).

Conditions: depending upon the conditions

Molecule | Solubility in aqueous solutions
CCCCCc1cc(O)c2c(c1)OC(C)(C)[C@@H]1CCC(C)=C[C@@H]21 [THC, tetrahydrocannabinol] | a few micrograms/ml or less
CCCCCc1cc(O)c2c(c1)OC(C)(C)c1ccc(C)cc1-2 [cannabinol] | a few micrograms/ml or less
cannabidiol [CBD] | a few micrograms/ml or less
